The nature of series [1]: MTD experiment, dose gradient by gavage. The settings on record: both sexes, mouse, in vivo, po, CR mice, by gavage, read-out: maximum tolerance (MTD). It counts as in vivo. As to the method: (§1) Mice are commonly used rodents to evaluate the toxicity of a test sample and are also an important part of early preclinical safety evaluation. In this experiment, the toxicity of compound 50561 was tested by administering a dose gradient thereof to the mice by gavage and observing its toxicity.
(§2) This experiment was designed such that for each dose centration, 10 mice were tested, including half males and half females. The males each weighed about 18-23 grams, and the females each weighed about 17-21 grams. They were randomly grouped by a simple randomization procedure. All the animals used in the experiment weighed between ±20% of the average body weight of their respective genders. If there are not enough animals in the study to meet the weight range required thereby, notify the responsible person of the project to take reasonable measures. Animals must be adapted to the laboratory for at least three days. During this period, daily cage observation was conducted once a day, and a detailed clinical observation was necessary before the experiment. Any animal with symptoms or physical abnormalities would be reported to the attending veterinarian and responsible person of the project, and excluded whenever possible. Animals suitable for experimentation will be assigned to respective experimental groups according to the random grouping method described above.
(§3) During the experiment, after administration, all animals were observed continuously for 4 hours; from the end of administration till 3 days thereafter, observations were carried out twice each day, one in the morning and the other in the afternoon; and then observation was carried out once a day. Observations included but were not limited to: skin, hair, eyes, ears, nose, mouth, chest, abdomen, external genitals, limbs, and feet. The respiratory and circulatory systems, autonomic effects (such as salivation), and nervous system (such as tremors, convulsions, stress responses, and abnormal behaviors) should be focused on. Complete anatomical examinations would be performed on all animals that had died, were dying, or planned to be euthanized. Animals found dead outside of fixed working hours could be placed in the refrigerator overnight and dissected immediately on the next working day. At the end of the experiment (14th day after administration), all animals requiring autopsy would be euthanized and autopsied.
(§4) External abnormalities in animals, such as palpable masses, should be examined in detail. The skin would be cut along the midline of the abdomen, and any subcutaneous mass would be confirmed in conjunction with the findings in the observations of animal symptoms. […] Diseased organs were removed, weighed, recoded, and kept in a fixative fluid.

For another series, the system named is CR mice. As to the kind of experiment: MTD experiment, dose gradient by gavage. Type of series: in vivo. As to the method:
as §1, §2, §3, §4

SMILES strings stand for the structures. Read-outs that look alike come from different tables or passages of the source.

With `O=C1C=C(OCc2ccc(F)cc2)[C@H](Cc2ccccc2)N1` [Compound 50561], the MTD (usually the largest dose that counted as tolerated) at 14 days in series [1] (CR) was below 500 mg/kg; in series [1], at least 250 mg/kg. The Body weight decreased result is given as “Body weight decreased by about 2 g, which” in the series on CR mice (250 mg/kg by gavage) and “Body weight decreased by about 2 g;” in the series with CR mice (500 mg/kg by gavage). Besides, the Remarks result was “in good condition” in the series with CR mice (250 mg/kg by gavage); “individual activity decreased; and the body” in the series on CR mice (500 mg/kg by gavage); “No abnormality of organs in dead individuals” in the series on CR mice (750 mg/kg by gavage); “No abnormality of organs in dead individuals” with CR mice (1000 mg/kg by gavage).

For the origin of these results see patent US11332440B2, “4-oxo-alkylated tetramic acid compound, and preparation method thereof” (priority 2017, dated 2022).
